Measured values reported in patent US8173654B2, “Triazolopyridazine compounds” (Janssen Pharmaceutica N.V., priority 2005, dated 2012).

Target: c-Met (Homo sapiens, UniProt P08581)
Assay: Delfia autophosphorylation kinase assay on the c-Met
Format: biochemical
Parameters: The purified His6 tagged cytoplasmic domain of c-Met was diluted to a concentration of 500 ng/ml; host or cells: Sf9 insect cells (baculovirus, pFastBacHTa)
Conditions: His6 tagged cytoplasmic domain of c-Met, 1 μM ATP; read-out: cMet Delfia autophos IC-50
Protocol: A DELFIA time resolved fluorescence assay was developed for screening of compounds that decreases the autophosphorylation thus the kinase activity of c-Met. The DELFIA assay is non-radioactive. The autophosphorylation of the c-Met is measured by an anti-phosphotyrosine antibody coupled to an Europium tag.
A major advantage of this format is that it allowed for the development of an autophosphorylation assay using Ni-chelate plates which bind the hexa-his tag on the recombinant Met kinase. The autophosphorylation assay allows one to use a known substrate, Met kinase itself, for the phosphorylation.
The assay procedure for screening is as follows. The purified His6 tagged cytoplasmic domain of c-Met was diluted to a concentration of 500 ng/ml in enzyme dilution buffer (50 mM Tris-HCl, pH8.0, 0.1% BSA) and dispensed to assay plates at a volume of 50 μl per well. Black opaque HisGrab Nickel coated 96 well plates (Pierce, Rockford, Ill.) were selected for use. Next, 2.5 μl of compound in 40% DMSO was added to test wells, 2.5 μl of 40% DMSO only was added to the negative control wells. The autophosphorylation reaction was initiated upon the addition of 50 μl of reaction buffer, 50 mM Tris-HCl, pH 8.0, 10 mM MgCl2, 0.1 mM Na3VO4, 1 mM DTT, 1 μM ATP. Plates were incubated at room temperature for 1 hour followed by 2 washes with 200 μl/well of PBS. Europium conjugated anti-phosphotyrosine antibody, Eu-PY20 from Perkin Elmer was diluted to 50 ng/ml in Delfia AB buffer (Perkin Elmer, Boston, Mass.), added to the 96 well assay plates at a volume of 100 μl/well, and incubated at room temperature for 2 hours. Assay plates were then washed 4 times each with 200 μl/well of Delfia wash buffer (Perkin Elmer). After the final wash 150 μl of Delfia Enhancement solution (Perkin Elmer) was added to each well of the assay plate and incubated at room temperature for 1 hour. Plates were read on an LJL Analyst instrument (Molecular Devices; Sunnyvale, Calif.) with filter settings of 360 excitation, 620 emission, and 410 dichroic. IC50 values were calculated using Graphpad Prism software (Graphpad Software; San Diego, Calif.).

Sequence of c-Met (P08581 956-1390 limits assumed): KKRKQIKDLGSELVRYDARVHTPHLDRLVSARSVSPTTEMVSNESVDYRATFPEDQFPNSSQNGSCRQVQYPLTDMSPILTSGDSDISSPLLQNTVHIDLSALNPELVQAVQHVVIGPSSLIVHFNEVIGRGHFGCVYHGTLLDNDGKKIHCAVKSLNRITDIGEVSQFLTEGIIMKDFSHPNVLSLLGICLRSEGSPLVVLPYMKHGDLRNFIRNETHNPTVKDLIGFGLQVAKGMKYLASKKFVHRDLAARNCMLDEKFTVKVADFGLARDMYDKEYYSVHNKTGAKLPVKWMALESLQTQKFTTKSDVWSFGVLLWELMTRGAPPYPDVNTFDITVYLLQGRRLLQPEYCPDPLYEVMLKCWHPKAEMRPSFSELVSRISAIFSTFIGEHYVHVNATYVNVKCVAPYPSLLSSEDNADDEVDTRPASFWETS

| Compound | IC50 |
| --- | --- |
| c1cc2c(cc1Cc1nnc3ccc(-c4ccc(N5CCOCC5)nc4)nn13)CCO2 [Example 8, 3-(2,3-Dihydro-benzofuran-5-ylmethyl)-6-(6-morpholin-4-yl-pyridin-3-yl)-[1,2,4]triazolo[4,3-b]pyridazine] | 243 nM |
| O=C(c1cncc(-c2ccc3nnc(Cc4ccc5ncccc5c4)n3n2)c1)N1CCOCC1 [Example 10, Morpholin-4-yl-[5-(3-quinolin-6-ylmethyl-[1,2,4]triazolo[4,3-b]pyridazin-6-yl)-pyridin-3-yl]-methanone] | 217 nM |
| c1cncc(-c2ccc3nnc(Cc4ccc5ncnn5c4)n3n2)c1 [Example 12, 6-Pyridin-3-yl-3-[1,2,4]triazolo[1,5-a]pyridin-6-ylmethyl-[1,2,4]triazolo[4,3-b]pyridazine] | 56 nM |
| Clc1cc(Cc2nnc3ccc(-c4cccnc4)nn23)ccn1 [Example 14, 3-(2-Chloro-pyridin-4-ylmethyl)-6-pyridin-3-yl-[1,2,4]triazolo[4,3-b]pyridazine] | > 10000 nM |
| c1ccc(-c2ccc3nnc(Cc4ccc5c(c4)CCO5)n3n2)nc1 [Example 19, 3-(2,3-Dihydro-benzofuran-5-ylmethyl)-6-pyridin-2-yl-[1,2,4]triazolo[4,3-b]pyridazine] | 172 nM |
| Nc1nc2ccc(Cc3nnc4ccc(-c5cccs5)nn34)cc2o1 [Example 21, 6-(6-Thiophen-2-yl-[1,2,4]triazolo[4,3-b]pyridazin-3-ylmethyl)-benzooxazol-2-ylamine] | 23 nM |
| c1ccc(Cc2nnc3ccc(-c4cccs4)nn23)cc1 [Example 24, 3-Benzyl-6-thiophen-2-yl-[1,2,4]triazolo[4,3-b]pyridazine] | 1780 nM |
| Fc1ccc(Cc2nnc3ccc(-c4cccs4)nn23)cc1 [Example 26, 3-(4-Fluoro-benzyl)-6-thiophen-2-yl-[1,2,4]triazolo[4,3-b]pyridazine] | 413 nM |
| O=[N+]([O-])c1ccc(Cc2nnc3ccc(-c4cccs4)nn23)cc1 [Example 27, 3-(4-Nitro-benzyl)-6-thiophen-2-yl-[1,2,4]triazolo[4,3-b]pyridazine] | 8210 nM |
| Nc1ccc(Cc2nnc3ccc(-c4cccs4)nn23)cc1 [Example 28, 4(6-Thiophen-2-yl-[1,2,4]triazolo[4,3-b]pyridazin-3-ylmethyl)-phenylamine] | 1900 nM |
| CC(=O)Nc1ccc(Cc2nnc3ccc(-c4cccs4)nn23)cc1 [Example 29, N-[4(6-Thiophen-2-yl-[1,2,4]triazolo[4,3-b]pyridazin-3-ylmethyl)-phenyl]-acetamide] | 86 nM |
| CCNC(=O)Nc1ccc(Cc2nnc3ccc(-c4cccs4)nn23)cc1 [Example 30, 1-Ethyl-3-[4-(6-thiophen-2-yl-[1,2,4]triazolo[4,3-b]pyridazin-3-ylmethyl)-phenyl]-urea] | 570 nM |
| O=c1ccc(Cc2nnc3ccc(-c4cccs4)nn23)c[nH]1 [Example 32, 5-(6-Thiophen-2-yl-[1,2,4]triazolo[4,3-b]pyridazin-3-ylmethyl)-1H-pyridin-2-one] | 305 nM |
| [O-][n+]1ccc(Cc2nnc3ccc(-c4cccs4)nn23)cc1 [Example 34, 3-(1-Oxy-pyridin-4-ylmethyl)-6-thiophen-2-yl-[1,2,4]triazolo[4,3-b]pyridazine] | 1190 nM |
| c1csc(-c2ccc3nnc(Cc4ccc5sccc5c4)n3n2)c1 [Example 36, 3-Benzo[b]thiophen-5-ylmethyl-6-thiophen-2-yl-[1,2,4]triazolo[4,3-b]pyridazine] | 2700 nM |
| c1cc2c(cc1Cc1nnc3ccc(-c4ccc(CN5CCOCC5)o4)nn13)CCO2 [Example 40, 3-(2,3-Dihydro-benzofuran-5-ylmethyl)-6-(5-morpholin-4-ylmethyl-furan-2-yl)-[1,2,4]triazolo[4,3-b]pyridazine] | 1080 nM |
| COc1cnccc1-c1ccc2nnc(Cc3ccc4c(c3)CCO4)n2n1 [Example 41, 3-(2,3-Dihydro-benzofuran-5-ylmethyl)-6-(3-methoxy-pyridin-4-yl)-[1,2,4]triazolo[4,3-b]pyridazine] | 56 nM |
